In patent US10851129B2, “Composition, crocins active site, and uses thereof” (Jinan University, priority 2016, dated 2020):

System: SH-SY5Y nerve cells
Assay: Neuroprotection in SH-SY5Y cell damage model induced by L-glutamic acid (MTT)
Type: cell-based
Conditions: L-glutamic acid 160 mM, 24 h, effective rate %
Protocol: SH-SY5Y nerve cells were cultured in DMEM medium (containing 5% fetal calf serum by volume fraction) which were placed in an incubator containing 5% CO2 under 37° C. They were subcultured once every 3-4 days. Cells in logarithmic phase were used for test
SH-SY5Y cells were inoculated in a 96-well plate at a concentration of 5×10^3 and continued to culture for 24 h. […] 3 parallel wells were arranged for each concentration. They were continued to culture for 24 h. 24 h later, the supernatant was pipetted out and discarded. 100 μL MTT (0.5 mg/mL) was added into each well. They were further incubated for 4 h. Then the supernatant was pipetted out and discarded. 150 μL DMSO was added into each well. They were vibrated for 10 min. A wavelength of 570 nm was selected. The absorbance value was measured on a microplate reader^[13]. (effective rate %=(ODdrug−ODmodel)/(ODcontrol−ODmodel)*100).

Compound	Neuroprotective effective rate (recovery of viability relative to glutamate model) (drug 10^−5 moL/L) [%]	Neuroprotective effective rate (recovery of viability relative to glutamate model) (drug 10^−6 moL/L) [%]	Neuroprotective effective rate (recovery of viability relative to glutamate model) (drug 10^−7 moL/L) [%]
CC(/C=C/C=C(\C)C(=O)O[C@@H]1OC(CO)[C@@H](O)C(O)C1O)=C\C=C\C=C(C)\C=C\C=C(/C)C(=O)O[C@@H]1OC(CO[C@@H]2OC(CO)[C@@H](O)C(O)C2O)[C@@H](O)C(O)C1O (stereo partly drawn) [Compound 2, crocetin-β-D-glucopyranosyl-β-D-gentiobioside]	0.00 ± 0.00	0.00 ± 0.00	0.00 ± 0.00
CC(/C=C/C=C(\C)C(=O)O[C@@H]1OC(CO)[C@@H](O)C(O)C1O)=C\C=C\C=C(C)\C=C\C=C(/C)C(=O)O[C@@H]1OC(CO)[C@@H](O)C(O)C1O (stereo partly drawn) [Compound 3, crocetin di-β-D-glucopyranoside]	0.00 ± 0.00	0.00 ± 0.00	0.00 ± 0.00
CC(/C=C/C=C(\C)C(=O)O[C@@H]1O[C@H](CO[C@@H]2O[C@H](CO)[C@@H](O)[C@H](O)[C@H]2O)[C@@H](O)[C@H](O)[C@H]1O)=C\C=C\C=C(C)\C=C\C=C(/C)C(=O)O[C@@H]1[C@H](O)C[C@@](O)(C(=O)O)C[C@H]1OC(=O)/C=C/c1ccc(O)c(O)c1 [Compound 5, neocrocin B]	40.03 ± 3.91	27.63 ± 5.36	9.89 ± 2.93
CC(/C=C/C=C(\C)C(=O)O)=C\C=C\C=C(C)\C=C\C=C(/C)C(=O)O[C@@H]1OC(CO)[C@@H](O)C(O)C1O (stereo partly drawn) [Compound 9, crocetin mono-β-D-glucopyranoside]	0.00 ± 0.00	0.00 ± 0.00	0.00 ± 0.00
